Like-named read-outs stand apart in the source and are kept apart here.
Experiments:
human 5-HT7 receptor [1] = biological target: T1, human 5-HT7 receptor (Homo sapiens, UniProt P34969); experiment: Saturation radioligand binding in the absence and presence of Zn2+; design: The full-length human 5-HT7b receptor complementary DNA (cDNA); details: non-linear regression, Eq. 1
Protocol: (§1) HEK293 cells stably expressing the human 5-HT7b receptor were grown in Dulbecco’s Modified Eagle’s Medium (DMEM) (Lonza, Basel, Switzerland) supplemented with 10% dialyzed fetal bovine serum (FBS) (Lonza) and 500 μg/ml G418 sulfate (Sigma-Aldrich) at 37 °C in a humidified atmosphere with 5% CO2. For the membrane preparations, the cells were sub-cultured in 150-cm^2 flasks, grown to 90% confluence, washed twice with phosphate-buffered saline (PBS) pre-warmed to 37 °C, and pelleted by centrifugation (200×g for 5 min) in PBS containing 0.1 mM ethylenediaminetetraacetic acid (EDTA) and 1 mM dithiothreitol (DTT). Prior to the membrane preparation, the pellets were frozen at −80 °C. For the functional experiments, the cells were sub-cultured in 75-cm^2 flasks, grown to 90% confluence, washed twice with PBS pre-warmed to 37 °C, and pelleted by centrifugation (180×g) in PBS containing 0.5 mM EDTA. The supernatant was aspirated, and the cell pellet was resuspended in stimulation buffer (1× HBSS, 5 mM HEPES, 0.5 mM IBMX, 0.1% BSA).
(§2) Cell pellets were thawed and homogenized in 10 volumes of 50 mM Tris–HCl buffer (pH 7.7) containing 0.1 mM EDTA, using an Ultra Turrax tissue homogenizer. The pellets were centrifuged twice at 35,000×g for 20 min at 4 °C, with 15-min incubation at 37 °C between centrifugations. The pellets were then resuspended in the incubation buffer as described below for the radioligand binding assays. The membrane protein concentrations were determined using the Pierce™ Coomassie (Bradford) Protein Assay Kit (Thermo Fisher Scientific, Waltham, USA), with bovine serum albumin (BSA) as the standard.
(§3) Data from the saturation (K D), competition binding (K i), and kinetic experiments (koff/offobs) were fitted to a one- or two-site model, and the models were compared using an F test (extra sum-of-squares test).

5-HT1A receptor = test system: 5-HT1A receptor; design: method as in PMID 26660328; details: cited from earlier work
HEK293 cells = details: 30-min exposure, MTT and LDH tests
Protocol: To estimate potential ZnCl2-induced cell death, a colorimetric method was applied in which the amount of formazan salt that had formed after the conversion of lactate to pyruvate followed by the reduction of tetrazolium salt was proportional to the lactate dehydrogenase (LDH) activity in the sample. All procedures were conducted according to the manufacturer’s protocol (Pierce LDH Cytotoxicity Assay Kit, Thermo Fisher Scientific, Waltham, Massachusetts, USA). In brief, the level of LDH released from damaged cells into the culture medium was measured after a 30-min exposure to different concentrations of ZnCl2 in 96-well plates. Cell-free culture supernatants were collected from each well and incubated with the appropriate substrate mix at RT for 30 min. The intensity of the red color formed in the assay and measured at a wavelength of 490 nm was proportional to the LDH activity and the number of damaged cells. The data were normalized to the activity of LDH released from lysis buffer-treated cells (100%) and expressed as a percent of the total ± SEM from three separate experiments.
The yellow tetrazolium 3-(4,5-dimethylthiazolyl-2)-2,5-diphenyltetrazolium bromide (MTT) is reduced by metabolically active cells, by the action of dehydrogenase enzymes, generating NADH and NADPH. The resulting intracellular purple formazan is then solubilized and quantified by spectrophotometry. […]

human 5-HT7 receptor [2] = biological target: T1, human 5-HT7 receptor; experiment: Screen of monovalent and divalent cations on radioligand binding; details: for decrease in radioligand binding relative to the control: higher cation concentration (5 mM)
Protocol: Non-specific binding was defined by the binding obtained in the presence of 10 μM 5-HT. The incubation buffer consisted of 50 mM Tris–HCl (pH 7.7), 4 mM MgCl2, 10 μM pargyline, and 0.1% ascorbic acid. The binding reactions were stopped by filtration through GF/B UniFilter plates using a harvester (PerkinElmer). The plate filters were then dried, and 20 μl of Ultima Gold MV (PerkinElmer) was added. Radioactivity was measured using a MicroBeta TriLux counter (PerkinElmer).
Initially, different monovalent and divalent cations (Na^+, K^+, Mg^2+, Ca^2+, and Zn^2+) were screened at concentrations of 500 μM and 5 mM to assess whether they had any effects on the 5-HT7 receptor (Fig. 1).
The binding of radioligands in the absence of the tested cations is referred to as basal specific binding and was set to 100% (dotted line)

human 5-HT7 receptor [3] = biological target: T1, human 5-HT7 receptor; experiment: Competition radioligand binding (orthosteric ligands ± Zn2+; Zn2+ titration curves); design: The full-length human 5-HT7b receptor complementary DNA (cDNA); details: read-out: IC50 for inhibiting radioligand binding
Protocol: as §2, §3
For the competition binding assay, the affinity constant values (K i) were calculated using the Cheng–Prusoff equation (Eq. 2): […]

human 5-HT7b receptor = biological target: T2, human 5-HT7b receptor (Homo sapiens, UniProt P34969); experiment: LANCE cAMP functional assay in HEK293 cells expressing the 5-HT7 receptor; assay type: cell-based; details: for effect on constitutive (unstimulated cAMP) activity: constitutively active 5-HT7 HEK293 cell line; for K B: antagonist vs 10 nM 5-CT
T2 construct: The full-length human 5-HT7b receptor complementary DNA (cDNA)
Protocol: as §1
Each compound was tested at eight concentrations ranging from 0.01 nM to 100 μM. The total level of cAMP was measured using the LANCE cAMP detection kit (PerkinElmer) according to the manufacturer’s recommendations. To quantify the cAMP levels, 200 or 1000 (for measuring constitutive activity) cells/well (5 μl) were incubated with compounds (5 μl) for 30 min at room temperature in a 384-well white opaque microtiter plate. After incubation, 10 μl of the working solution (5 μl Eu-cAMP and 5 μl ULight-anti-cAMP) was added to induce cell lysis and terminate the reaction. The assay plate was incubated for 1 h at room temperature. The time-resolved fluorescence resonance energy transfer (TR-FRET) signal was detected using an Infinite M1000 PRO (Tecan, Männedorf, Switzerland) with instrument settings from the LANCE cAMP detection kit manual.
The derivation of the Cheng–Prusoff equation was applied for the analysis of antagonist functional inhibition curves

muscarinic M2 receptor = test system: muscarinic M2 receptor; design: method as in PMID 17009927; details: cited from earlier work
[4] = cation at both concentrations, 500 μM and 5 mM

T2 sequence (P34969 1-432 limits assumed): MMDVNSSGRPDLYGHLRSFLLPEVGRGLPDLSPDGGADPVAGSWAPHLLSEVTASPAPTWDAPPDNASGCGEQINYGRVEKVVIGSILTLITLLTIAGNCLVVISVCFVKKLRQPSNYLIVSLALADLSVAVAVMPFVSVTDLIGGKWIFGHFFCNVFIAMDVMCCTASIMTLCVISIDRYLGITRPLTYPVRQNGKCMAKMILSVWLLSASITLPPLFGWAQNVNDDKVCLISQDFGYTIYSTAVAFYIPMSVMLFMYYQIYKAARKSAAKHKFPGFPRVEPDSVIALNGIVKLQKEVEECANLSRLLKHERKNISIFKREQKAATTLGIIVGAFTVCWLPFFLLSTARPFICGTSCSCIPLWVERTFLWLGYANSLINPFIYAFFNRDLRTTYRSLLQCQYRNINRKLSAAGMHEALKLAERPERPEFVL
T1 sequence (P34969 1-432 limits assumed): as above

[Cl-].[Cl-].[Zn+2] [Zn^2+, ZnCl2]
cooperativity factor α (human 5-HT7 receptor [1]; vs [3H]5-CT binding): 0.15
cooperativity factor α (human 5-HT7 receptor [1]; vs [3H]SB-269970 binding): 0.06
cooperativity factor α (human 5-HT7 receptor [1]; vs [3H]mesulergine binding): 0.25
effect on agonist binding (5-HT1A receptor; Zn2+ 10 μM): potentiation
effect on agonist binding (5-HT1A receptor; Zn2+ 500 μM): inhibition
concentration not affecting the number of living cells (HEK293 cells): ≤ 200 µM
effect on the level of [3H]SB-269970 binding (human 5-HT7 receptor [2]; cation 500 μM): did not influence
reduction of [3H]5-CT binding (human 5-HT7 receptor [2]; cation 500 μM): 67%
reduction of [3H]mesulergine binding (human 5-HT7 receptor [2]; cation 500 μM): 55%
decrease in radioligand binding relative to the control (human 5-HT7 receptor [2]): up to 90%
IC50 (human 5-HT7 receptor [3]; vs [3H]5-CT at fixed concentration (≤K D)): 346 µM
IC50 (human 5-HT7 receptor [3]; vs [3H]SB-269970 at fixed concentration (≤K D)): 1170 µM
IC50 (human 5-HT7 receptor [3]; vs [3H]mesulergine at fixed concentration (≤K D)): 241 µM
effect on constitutive (unstimulated cAMP) activity (human 5-HT7b receptor): no influence
functional profile (human 5-HT7b receptor; zinc concentration up to 10 μM): weak neutral antagonist

[Ca+2] [Ca^2+]
effect on the binding of the three tested radioligands (human 5-HT7 receptor [2]; cation 500 μM): did not alter
decrease in radioligand binding relative to the control (human 5-HT7 receptor [2]): 10 to 20%

[K+] [K^+]
effect on the binding of the three tested radioligands (human 5-HT7 receptor [2]; [4]): did not alter

C=CC[N@@+]12CC[C@@]34c5ccccc5N5/C=C6/[C@H]7C[C@H]8[C@@]9(CC[N@@+]8(CC=C)C/C7=C/CO)c7ccccc7N(/C=C(/[C@@H](C[C@@H]31)/C(=C\CO)C2)[C@H]54)[C@@H]69 [alcuronium]
change in the affinity of acetylcholine (fold) (muscarinic M2 receptor): 10 fold
change in the affinity of arecoline (fold) (muscarinic M2 receptor): 1.7 fold

[Na+] [Na^+]
effect on the binding of the three tested radioligands (human 5-HT7 receptor [2]; [4]): did not alter

CN1C[C@@H](NS(=O)(=O)N(C)C)C[C@@H]2c3cccc4c3c(cn4C)C[C@H]21 [Mesulergine, mesulergine]
K B (human 5-HT7b receptor; Zn2+ 0 μM): 31.05 ± 7.51 nM
K B (human 5-HT7b receptor; Zn2+ 0 μM, listed as mesulergine): 31 nM
K B (human 5-HT7b receptor; Zn2+ 10 μM): 37.15 ± 6.86 nM
effect on constitutive (unstimulated cAMP) activity (human 5-HT7b receptor): inverse agonistic properties

[Mg+2] [Mg^2+]
effect on the binding of the three tested radioligands (human 5-HT7 receptor [2]; cation 500 μM): did not alter
decrease in radioligand binding relative to the control (human 5-HT7 receptor [2]): 10 to 20%

Reference: paper PMC5842505, “Allosteric Inhibition of Serotonin 5-HT7 Receptors by Zinc Ions” (Molecular Neurobiology, 2017)
